System: 889142-216-R-J1-PDC complex spheroid viability
Assay: Anticancer human tumor 889142-216-R-J1-PDC patient-derived bladder carcinoma cell line growth inhibition [POLQ]
Conditions: for IC50: curve of first compound; for viability, T/C: stronger effect = lower value
How it was run: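 Three-cell-type spheroids modelling solid tumor plus stroma served as the readout system; POL inhibitors were tested individually and in combination, concentration ranges set by clinical Cmax where known.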
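Further: spheroids exposed to compounds for seven days.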
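Wherever viability, T/C is given: 100% = DMSO vehicle control viability.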

Structure (SMILES): CC(=O)O[C@H]1C(=O)[C@@]2(C)[C@H]([C@H](OC(=O)c3ccccc3)[C@]3(O)C[C@H](OC(=O)[C@H](O)[C@@H](NC(=O)c4ccccc4)c4ccccc4)C(C)=C1C3(C)C)[C@]1(OC(C)=O)CO[C@@H]1C[C@@H]2O + Nc1ccc(C#CCN(C(=O)Cc2ncc(C(F)(F)F)cc2C(F)(F)F)c2ccc(F)cc2)nn1
- IC50 (second compound 0.0316 µM): 0.072 µM
- IC50 (second compound 0.1 µM): 0.907 µM
- IC50 (second compound 0.316 µM): > 3 µM
- IC50 (second compound 1 µM): 1.33 µM
- IC50 (second compound 3.16 µM): < 0.00949 µM
- IC50 (second compound 10 µM): > 3 µM
- viability, T/C (second compound 0.0316 µM, first compound 0.00949 µM): 53.5%
- viability, T/C (second compound 0.0316 µM, first compound 0.03 µM): 45.8%
- viability, T/C (second compound 0.0316 µM, first compound 0.0949 µM): 51.5%
- viability, T/C (second compound 0.0316 µM, first compound 0.3 µM): 50.9%
- viability, T/C (second compound 0.0316 µM, first compound 0.949 µM): 49.4%
- viability, T/C (second compound 0.0316 µM, first compound 3 µM): 43.8%
- viability, T/C (second compound 0.1 µM, first compound 0.00949 µM): 57.1%
- viability, T/C (second compound 0.1 µM, first compound 0.03 µM): 41.5%
- viability, T/C (second compound 0.1 µM, first compound 0.0949 µM): 54.6%
- viability, T/C (second compound 0.1 µM, first compound 0.3 µM): 51.2%
- viability, T/C (second compound 0.1 µM, first compound 0.949 µM): 53.1%
- viability, T/C (second compound 0.1 µM, first compound 3 µM): 47.1%
- viability, T/C (second compound 0.316 µM, first compound 0.00949 µM): 53%
- viability, T/C (second compound 0.316 µM, first compound 0.03 µM): 57.2%
- viability, T/C (second compound 0.316 µM, first compound 0.0949 µM): 46.3%
- viability, T/C (second compound 0.316 µM, first compound 0.3 µM): 50.3%
- viability, T/C (second compound 0.316 µM, first compound 0.949 µM): 61.7%
- viability, T/C (second compound 0.316 µM, first compound 3 µM): 50.9%
- viability, T/C (second compound 1 µM, first compound 0.00949 µM): 53.7%
- viability, T/C (second compound 1 µM, first compound 0.03 µM): 51%
- viability, T/C (second compound 1 µM, first compound 0.0949 µM): 52%
- viability, T/C (second compound 1 µM, first compound 0.3 µM): 50.6%
- viability, T/C (second compound 1 µM, first compound 0.949 µM): 51.8%
- viability, T/C (second compound 1 µM, first compound 3 µM): 48.6%
- viability, T/C (second compound 3.16 µM, first compound 0.00949 µM): 45.2%
- viability, T/C (second compound 3.16 µM, first compound 0.03 µM): 54%
- viability, T/C (second compound 3.16 µM, first compound 0.0949 µM): 51.3%
- viability, T/C (second compound 3.16 µM, first compound 0.3 µM): 46.7%
- viability, T/C (second compound 3.16 µM, first compound 0.949 µM): 53.3%
- viability, T/C (second compound 3.16 µM, first compound 3 µM): 57.1%
- viability, T/C (second compound 10 µM, first compound 0.00949 µM): 55%
- viability, T/C (second compound 10 µM, first compound 0.03 µM): 52.2%
- viability, T/C (second compound 10 µM, first compound 0.0949 µM): 55.5%
- viability, T/C (second compound 10 µM, first compound 0.3 µM): 59.3%
- viability, T/C (second compound 10 µM, first compound 0.949 µM): 59.9%
- viability, T/C (second compound 10 µM, first compound 3 µM): 53.3%

Structure (SMILES): CNCc1ccc(-c2[nH]c3cc(F)cc4c3c2CCNC4=O)cc1 + COC1C(OC(N)=O)C(O)C(Oc2ccc3c(O)c(NC(=O)c4ccc(O)c(CC=C(C)C)c4)c(=O)oc3c2C)OC1(C)C
- IC50 (second compound 0.0316 µM): > 10 µM
- IC50 (second compound 0.1 µM): > 10 µM
- IC50 (second compound 0.316 µM): > 10 µM
- IC50 (second compound 1 µM): > 10 µM
- IC50 (second compound 3.16 µM): > 10 µM
- IC50 (second compound 10 µM): > 10 µM
- viability, T/C (second compound 0.0316 µM, first compound 0.0316 µM): 120%
- viability, T/C (second compound 0.0316 µM, first compound 0.1 µM): 97.3%
- viability, T/C (second compound 0.0316 µM, first compound 0.316 µM): 100%
- viability, T/C (second compound 0.0316 µM, first compound 1 µM): 105%
- viability, T/C (second compound 0.0316 µM, first compound 3.16 µM): 97.2%
- viability, T/C (second compound 0.0316 µM, first compound 10 µM): 79.5%
- viability, T/C (second compound 0.1 µM, first compound 0.0316 µM): 109%
- viability, T/C (second compound 0.1 µM, first compound 0.1 µM): 107%
- viability, T/C (second compound 0.1 µM, first compound 0.316 µM): 96.4%
- viability, T/C (second compound 0.1 µM, first compound 1 µM): 93.2%
- viability, T/C (second compound 0.1 µM, first compound 3.16 µM): 98.1%
- viability, T/C (second compound 0.1 µM, first compound 10 µM): 85.4%
- viability, T/C (second compound 0.316 µM, first compound 0.0316 µM): 103%
- viability, T/C (second compound 0.316 µM, first compound 0.1 µM): 98.6%
- viability, T/C (second compound 0.316 µM, first compound 0.316 µM): 90.6%
- viability, T/C (second compound 0.316 µM, first compound 1 µM): 122%
- viability, T/C (second compound 0.316 µM, first compound 3.16 µM): 97.6%
- viability, T/C (second compound 0.316 µM, first compound 10 µM): 58.2%
- viability, T/C (second compound 1 µM, first compound 0.0316 µM): 96.8%
- viability, T/C (second compound 1 µM, first compound 0.1 µM): 92.6%
- viability, T/C (second compound 1 µM, first compound 0.316 µM): 103%
- viability, T/C (second compound 1 µM, first compound 1 µM): 94.3%
- viability, T/C (second compound 1 µM, first compound 3.16 µM): 82.6%
- viability, T/C (second compound 1 µM, first compound 10 µM): 84.2%
- viability, T/C (second compound 3.16 µM, first compound 0.0316 µM): 89.2%
- viability, T/C (second compound 3.16 µM, first compound 0.1 µM): 106%
- viability, T/C (second compound 3.16 µM, first compound 0.316 µM): 92%
- viability, T/C (second compound 3.16 µM, first compound 1 µM): 83.9%
- viability, T/C (second compound 3.16 µM, first compound 3.16 µM): 93.2%
- viability, T/C (second compound 3.16 µM, first compound 10 µM): 89.3%
- viability, T/C (second compound 10 µM, first compound 0.0316 µM): 115%
- viability, T/C (second compound 10 µM, first compound 0.1 µM): 98.2%
- viability, T/C (second compound 10 µM, first compound 0.316 µM): 88.5%
- viability, T/C (second compound 10 µM, first compound 1 µM): 83.4%
- viability, T/C (second compound 10 µM, first compound 3.16 µM): 104%
- viability, T/C (second compound 10 µM, first compound 10 µM): 84%
